Values of other authors as cited in publication PMC8374649, “IBI362 (LY3305677), a weekly-dose GLP-1 and glucagon receptor dual agonist, in Chinese adults with overweight or obesity: A randomised, placebo-controlled, multiple ascending dose phase 1b study” (EClinicalMedicine, 2021).

How the values were obtained:
[1] = tested on: Japanese adults with type 2 diabetes; settings: once-daily, 48-day phase 2a study; cited from earlier work
Excerpt: Despite the weight loss effect of glucagon, its inherited stimulation of gluconeogenesis and glycogenolysis requires optimal balancing of GLP-1 and glucagon receptor activities for dual agonists. […] IBI362 has b ...

[2] = tested on: patients with type 2 diabetes; settings: 12-week administration; cited from earlier work
Excerpt: A remarkable and unexpected finding of this study was the statistically significant reduction in serum uric acid levels in participants receiving IBI362. BMI is strongly positively correlated with serum uric acid levels, and weight loss is a commonly recommended treatment for gout, a disease resulting from chronic elevation of serum uric acid, [29], [30]. Although GLP-1 receptor agonists promote weight loss, direct evidence regarding the relationship between GLP-1 receptor agonists and blood uric acid level is limited.

| Substance | Weight loss and glycaemic control [1] | Plasma uric acid levels compared with placebo [2] |
| --- | --- | --- |
| Cotadutide | optimal weight loss and glycaemic control | – |
| liraglutide (HAEGTFTSDVSSYLEGQAAKEFIAWLVRGRG; chains of the INN, looked up) [GLP-1 receptor agonist] | – | did not reduce plasma uric acid levels |
